Ends that are not written are not given here.
Columns and labels:
[1] = tested on: hepatitis B virus (HBV) ayw strain; assay: HBV replication assay in HepG2-2.2.15 cells (TaqMan PCR of secreted HBV DNA); assay type: cell-based; conditions: 10 micrograms per ml; HepG2-2.2.15, 6 days; combination 0.95 mole peptide 1 and 1.05 mole peptide 2
[2] = tested on: Primary Human endothelial cells (HUVEC); assay: Endothelial cell migration assay; assay type: cell-based; conditions: 10 micrograms per ml, 22 hours
Experimental: Thereafter, designated concentration of testing peptides—10 micrograms per ml—was added in duplicate wells.

A549 cells = assay: Apoptosis prevention assay (C2 ceramide, Annexin-5); assay type: cell-based, human; conditions: 10 micrograms per ml, 30 min pretreatment, combination 0.95:1.05 mole
murine spleen cells = assay: Th1/Th2 cytokine profiling assay; assay type: cell-based, Balb/c mice; conditions: 10 micrograms per ml; Ovalbumin-restimulated murine spleen cells, 72 hours
Text: The Balb/c mice (originated in 1923, it is a popular strain and is used in many different research disciplines. Also classified as an inbred from the production of 20 or more successive brother-sister matings, the Balb/c mouse is albino and small in size) were immunized on Days 1, 15, and 29 with Ovalbumin (Ovalbumin is the main protein found in egg white, commonly used to stimulate an immunological reaction in test animals) in PBS (5 micrograms/injection). On day 50, spleens of the mice were harvested (3 weeks after last boost with Ovalbumin). Cells were cultured (2×10^5/well in triplicate) and incubated with culture medium or test peptides—10 micrograms per ml—for 30 min. Thereafter, additional Ovalbumin was added to the cells at 10 micrograms/ml for in vitro restimulation of the cells. 72 hours later, cell supernatants were harvested and assayed using the Becton Dickinson Mouse Th1/Th2 Cytokine CBA Kit.

HUVEC = assay: Endothelial tube formation assay; assay type: cell-based, human; conditions: 10 micrograms per ml, 20 hours, combination 1.10 mole:0.90 mole
Text: Positive control was vehicle only.

HCMV strain AD169 = assay: HCMV plaque formation assay in MRC-5 cells; conditions: 10 micrograms per ml, 7-10 days

Molecule | inhibition of HBV replication as compared to the virus control infection [1] | increase of the migration of endothelial cells [2] [%] | reduction of the ceramide-induced apoptosis on human lung cells (A549 cells) | change of the production of TNF-alpha (murine spleen cells) | production of IFN-γ (decreased by %) (murine spleen cells) | production of IL-2 (induced by %) (murine spleen cells) | production of IL-4 (decreased by %) (murine spleen cells) | production of IL-5 (decreased by %) (murine spleen cells) [%] | inhibition of the tube formation of human endothelial cells (HUVEC) [%] | inhibition of HCMV plaque formation as compared to the virus control (HCMV strain AD169) | inhibition of the migration of human endothelial cells ([2]; combination 1.10 mole:0.90 mole) [%]
Met-Gln-Met-Lys-Lys-Val-Leu-Asp-Ser-OH (MQMKKVLDS-OH) [Peptide 2] | no effect | 16 | did not reduce | did not significantly change | 27.5% | did not significantly change | did not significantly change | 38.8 | 4 | did not inhibit | 
CC(C)C[C@H](NC(=O)CNC(=O)[C@H](Cc1ccc(O)cc1)NC(=O)[C@H](CO)NC(=O)[C@H](Cc1c[nH]c2ccccc12)NC(=O)[C@H](Cc1cnc[nH]1)NC(=O)[C@@H]1CCC(=O)N1)C(=O)N[C@@H](CCCNC(=N)N)C(=O)N1CCC[C@H]1C(=O)NCC(N)=O [Peptide 1] | 30.4% |  | 27.05% | did not significantly change | did not significantly change | 43.6% | 65.9% | 44.1 | 6 | did not inhibit | 39

Source: patent US8349805B2, “Use of Gonadorelin as a therapeutic agent” (priority 2007, dated 2013)
